Where a SMILES comes first, the peptide text is derived from it. Where no end group is shown, it is not given here. [ ]: non-standard residue; d: D form. The star is where a group is joined. Phe(4-N(CH2CH2Cl)2) = N[C@@H](Cc1ccc(N(CCCl)CCCl)cc1)C(=O)O; 5FAM = O=C1OC2(c3ccc(O)cc3Oc3cc(O)ccc32)c2ccc(C(=O)*)cc21
Assays:
9L-Luc gliosarcoma cells = assay: In vitro cytotoxicity (BrdU and bioluminescence assays); type: cell-based; conditions: 1-100 μM, 1-hour exposure, viability at 24 hours
Procedure: In vitro cytotoxicity studies and uptake analysis. […] 9L luciferase-expressing (9L-Luc) gliosarcoma cells (provided by Dr. Brian Ross University of Michigan, Ann Arbor) were incubated in a 96 well plate and grown to 95% confluence. 9L-Luc cells were cultured in Delbecco's Modified Eagle Medium (DMEM) with fetal bovine serum (10%), streptomycin ([…]) and penicillin (100 U/ml) and 1-glutamine 2 mM in an atmosphere 95/5% O2 and CO2 with 100% humidity. They were exposed to 1, 10, and 100 μM of the compound for 1-hour and assessed for viability at 24 hours. Data for all three assays was normalized to the survival of untreated cells. Assays were run in triplicate and fluorescence values were averaged for each treatment. The 3% hydrogen peroxide treated cells provided positive controls.

9L cells = conditions: one hour exposure, MTT and BrdU assays after 7 days
Procedure: Cytotoxicity Study. 9L cells were grown to confluence in 96-well plates. Individual wells were exposed to no treatment or increasing concentrations of melphalan, TAT monomer, melphalan-conjugated TAT monomer (obtained from a supplier) or melphalan-conjugated TAT dimer (obtained from a supplier). Cells were incubated under these conditions for one hour. Growth factors were then reintroduced and the cells were grown for a week with standard periodic care. After 7 days, MTT and BrdU assays were used to assess cell viability. All tests were done in quadruplicate and data normalized to the untreated group. […] IV injection of the […]

9L-gliosarcoma cells = assay: Membrane fluidity with beta-cyclodextrin cholesterol depletion; type: cell-based; conditions: 4° C. and 37° C., FIG. 33C
Procedure: 9L-gliosarcoma cells were grown to confluence in T-75 in recommended culture media. Membrane fluidity was determined by using commercially available “Gene Marker” kit. Fluorescein tagged TAT was used for determining uptake of the cell penetrating peptide. To alter membrane fluidity TAT uptake was determined at different temperatures of 4° C., 15° C. 25° C., 35° C. and 37° C.
The role of cholesterol in affecting membrane fluidity was then assessed. Cholesterol content of the membrane was measured using the commercially available Fillipin-III assay. Beta-cyclodextrin was used to deplete membrane cholesterol. The effect of cyclodextrin on TAT uptake of 100 μL at 0.1 mg/mL for 10 minutes at different temperatures was then assessed. Fluorescence was assessed by flow cytometry and confocal imaging was performed as needed.

9L glioma tumor = assay: In vivo uptake of TAT dimer versus monomer by IA-TCH (MSI and confocal imaging); parameters: species or system rat; conditions: dimer 0.25 mg, monomer 0.125 mg, five rats each
Procedure: An additional experiment was performed to assess the in vivo uptake of fluorescein-labeled TAT dimer by IA-TCH. About 14 days after 9L glioma tumor implantation, rats were anesthetized and prepared for TAT dimer delivery experiments. TAT dimer was conjugated with fluorescein such that its concentrations in post mortem samples could be determined immediately by multispectral imaging and confocal imaging. TAT dimer (0.25 mg) and monomer (0.125 mg) were tested using IA-TCH delivery both containing equal amounts of fluorescein were evaluated. […] Animals were sacrificed 15 minutes after TAT injection. Brain tissue was harvested.

9L glioma = assay: Survival after IA-TCH delivery of melphalan or melphalan-conjugated TAT; type: in vivo, rat; conditions: for Bleeding events: IA-TCH
Procedure: Thirteen 9L glioma-implanted anesthetized rats were intubated and ventilated. The carotid artery of each rat was exposed and cannulated but the ICA was not isolated to minimize surgical trauma. The rats were subjected to delivery of melphalan with adenosine, esmolol and cold saline via IA-TCH. Six rats received 0.25 mg of melphalan, three rats received 0.5 mg melphalan and one rat received 1 mg of melphalan. Remaining rats were either treated with saline or left untreated. After the IA-TCH injection, rats were allowed to recover and sacrificed when pre-determined criteria were met.
A similar procedure was performed on seven 9L glioma-implanted rats using melphalan-conjugated TAT monomer at a dose of 1 mg (0.16 mg melphalan content). However, the ICA was isolated with an aneurysm clip. Survival of the rats was monitored and images of the brains of the rats were obtained by MRI. The same procedure was performed using 5 rats with melphalan-conjugated TAT dimer at a dose of 1 mg (0.08 mg melphalan content).

[1] = Delivery of cell-penetrating peptides to the brain of healthy rats, confocal microscopy; type: in vivo, rat; conditions: rat, in vivo
From the text: Animal preparation, IA-TCH injection, and brain tumor implantation. Animal protocols were approved by the Columbia University Institutional Animal Care and Use Committee (IACUC). Studies were primarily conducted on Sprague-Dawley rats weighing 250 to 300 grams. In the case of electron multiplying charge-coupled device imaging studies, Fisher 344 rats implanted with 9L brain tumors were utilized. The surgical preparation including anesthesia, carotid and femoral cannulation, cerebral blood flow and vital sign monitoring, as well as in vivo fluorescence imaging have been previously described in detail.
IA injections of cell-penetrating peptides (CPPs) were made during TCH as 65 μL pulses totaling 1 ml in volume. TCH was produced by a bolus injection of adenosine, esmolol, and cold saline. Animals were allowed to hemodynamically recover from TCH and euthanized 10 minutes after injection. Uptake of CPPs was assessed with a fluorescence camera and with confocal fluorescence microscopy.
Cell-penetrating peptides. Two experimental cell-penetrating peptides were tested: 1. octaarginine, also called (Arg)8 or R-8 (SEQ ID NO: 13) and 2. trans-activator of transcription or TAT (Lifetien Inc.). The 14 amino acid peptide sequence for TAT is […]COOH (SEQ ID NO: 11). Both cell-penetrating peptides (CPPs) were labeled with fluorescein so that their distribution could be identified by multispectral imaging and with fluorescence microscopy of the frozen brain sections.
Fluorescence and electron multiplying charge-coupled device imaging.

## COc1cccc2c1C(=O)c1c(O)c3c(c(O)c1C2=O)C[C@@](O)(C(=O)CO)C[C@@H]3O[C@H]1C[C@H](N)[C@H](O)[C@H](C)O1 [Dox, Doxorubicin]
9L-Luc gliosarcoma cells
  Relative toxicity (cellular viability): highest toxicity

## N=C(N)NCCC[C@H](NC(=O)CN)C(=O)N[C@@H](CCCCN)C(=O)N[C@@H](CCCCN)C(=O)N[C@@H](CCCNC(=N)N)C(=O)N[C@@H](CCCNC(=N)N)C(=O)N[C@@H](CCC(N)=O)C(=O)N[C@@H](CCCNC(=N)N)C(=O)N[C@@H](CCCNC(=N)N)C(=O)N[C@@H](CCCNC(=N)N)C(=O)N1CCC[C@H]1C(=O)N1CCC[C@H]1C(=O)N[C@@H](CCC(N)=O)C(=O)N[C@@H](CCC(N)=O)C(=O)O [TAT monomer]
9L cells
  Relative cytotoxicity (cell viability): cytotoxicity increases from TAT monomer to melphalan-conjugated TAT monomer to melphalan-conjugated TAT dimer to melphalan alone

## OC[C@H]1O[C@@H]2O[C@H]3[C@H](O)[C@@H](O)[C@@H](O[C@H]4[C@H](O)[C@@H](O)[C@@H](O[C@H]5[C@H](O)[C@@H](O)[C@@H](O[C@H]6[C@H](O)[C@@H](O)[C@@H](O[C@H]7[C@H](O)[C@@H](O)[C@@H](O[C@H]8[C@H](O)[C@@H](O)[C@@H](O[C@H]1[C@H](O)[C@H]2O)O[C@@H]8CO)O[C@@H]7CO)O[C@@H]6CO)O[C@@H]5CO)O[C@@H]4CO)O[C@@H]3CO [beta-cyclodextrin]
9L-gliosarcoma cells
  Effect on membrane fluidity: increased fluidity at higher temperatures (37° C.) than at lower temperature (4° C.) in a dose-dependent manner

## N=C(N)NCCC[C@H](NC(=O)CNC(=O)[C@H](CCC(N)=O)NC(=O)[C@H](CCC(N)=O)NC(=O)[C@@H]1CCCN1C(=O)[C@@H]1CCCN1C(=O)[C@H](CCCNC(=N)N)NC(=O)[C@H](CCCNC(=N)N)NC(=O)[C@H](CCCNC(=N)N)NC(=O)[C@H](CCC(N)=O)NC(=O)[C@H](CCCNC(=N)N)NC(=O)[C@H](CCCNC(=N)N)NC(=O)[C@H](CCCCN)NC(=O)[C@H](CCCCN)NC(=O)[C@H](CCCNC(=N)N)NC(=O)CNC(=O)c1ccc2c(c1)C(=O)OC21c2ccc(O)cc2Oc2cc(O)ccc21)C(=O)N[C@@H](CCCCN)C(=O)N[C@@H](CCCCN)C(=O)N[C@@H](CCCNC(=N)N)C(=O)N[C@@H](CCCNC(=N)N)C(=O)N[C@@H](CCC(N)=O)C(=O)N[C@@H](CCCNC(=N)N)C(=O)N[C@@H](CCCNC(=N)N)C(=O)N[C@@H](CCCNC(=N)N)C(=O)N1CCC[C@H]1C(=O)N1CCC[C@H]1C(=O)N[C@@H](CCC(N)=O)C(=O)N[C@@H](CCC(N)=O)C(=O)O [fluorescein-labeled TAT dimer, 5-FAM-GRKKRRQRRR PPQQGRKKRR QRRRPPQQ-COOH] (5FAM-GRKKRRQRRRPPQQGRKKRRQRRRPPQQ-OH)
9L glioma tumor
  Tumor selective delivery: able to achieve tumor selective drug delivery

## N[C@@H](Cc1ccc(N(CCCl)CCCl)cc1)C(=O)O [melphalan, Melphalan, reference compound]
9L cells
  Relative cytotoxicity (cell viability): cytotoxicity increases from TAT monomer to melphalan-conjugated TAT monomer to melphalan-conjugated TAT dimer to melphalan alone
9L glioma; 0.25, 0.5, 1 mg IA-TCH
  Dose group with peak survival: peak survival was found in the 0.25 mg melphalan group
9L glioma
  Bleeding events: significant bleeding
9L glioma; melphalan 0.25, 0.5 or 1 mg IA-TCH, p=0.07 versus controls
  Survival: 30 ± 8 days

## N=C(N)NCCC[C@H](NC(=O)CNC(=O)[C@H](CCC(N)=O)NC(=O)[C@H](CCC(N)=O)NC(=O)[C@@H]1CCCN1C(=O)[C@@H]1CCCN1C(=O)[C@H](CCCNC(=N)N)NC(=O)[C@H](CCCNC(=N)N)NC(=O)[C@H](CCCNC(=N)N)NC(=O)[C@H](CCC(N)=O)NC(=O)[C@H](CCCNC(=N)N)NC(=O)[C@H](CCCNC(=N)N)NC(=O)[C@H](CCCCN)NC(=O)[C@H](CCCCN)NC(=O)[C@H](CCCNC(=N)N)NC(=O)CNC(=O)[C@@H](N)Cc1ccc(N(CCCl)CCCl)cc1)C(=O)N[C@@H](CCCCN)C(=O)N[C@@H](CCCCN)C(=O)N[C@@H](CCCNC(=N)N)C(=O)N[C@@H](CCCNC(=N)N)C(=O)N[C@@H](CCC(N)=O)C(=O)N[C@@H](CCCNC(=N)N)C(=O)N[C@@H](CCCNC(=N)N)C(=O)N[C@@H](CCCNC(=N)N)C(=O)N1CCC[C@H]1C(=O)N1CCC[C@H]1C(=O)N[C@@H](CCC(N)=O)C(=O)N[C@@H](CCC(N)=O)C(=O)O [melphalan-conjugated TAT dimer] (H-[Phe(4-N(CH2CH2Cl)2)]GRKKRRQRRRPPQQGRKKRRQRRRPPQQ-OH)
9L cells
  Relative cytotoxicity (cell viability): cytotoxicity increases from TAT monomer to melphalan-conjugated TAT monomer to melphalan-conjugated TAT dimer to melphalan alone
9L glioma
  Bleeding events: No significant bleeding events

## N=C(N)NCCC[C@H](NC(=O)CNC(=O)[C@@H](N)Cc1ccc(N(CCCl)CCCl)cc1)C(=O)N[C@@H](CCCCN)C(=O)N[C@@H](CCCCN)C(=O)N[C@@H](CCCNC(=N)N)C(=O)N[C@@H](CCCNC(=N)N)C(=O)N[C@@H](CCC(N)=O)C(=O)N[C@@H](CCCNC(=N)N)C(=O)N[C@@H](CCCNC(=N)N)C(=O)N[C@@H](CCCNC(=N)N)C(=O)N1CCC[C@H]1C(=O)N1CCC[C@H]1C(=O)N[C@@H](CCC(N)=O)C(=O)N[C@@H](CCC(N)=O)C(=O)O [melphalan-conjugated TAT monomer]
9L cells
  Relative cytotoxicity (cell viability): cytotoxicity increases from TAT monomer to melphalan-conjugated TAT monomer to melphalan-conjugated TAT dimer to melphalan alone
9L glioma; 1 mg IA-TCH
  Tolerability: well tolerated
9L glioma
  Bleeding events: Only one of seven animals showed some evidence of a tail bleed

## octaarginine (RRRRRRRR; also: FITC label, position not given here) [FITC labeled R8, reference compound]
[1]
  Deposition by hemisphere: detectable deposition preferentially to the hemisphere ipsilateral to carotid injection
  Distribution in the brain (semi-quantitative): more discrete and predominantly within vessel walls

Source: US11980667B2, “Short TAT oligomers for drug delivery” (The Trustees of Columbia University in the City of New York, priority 2017, dated 2024)
